Results reported in US9410158B2, “Genetically modified yeast species, and fermentation processes using genetically modified yeast” (Cargill Incorporated, priority 2003, dated 2016).

Tested on: xylose isomerase enzyme (PXYLA)
Test: Inhibition of PXYLA activity in strain CD861 using xylitol (Ex. 8E)
Type: biochemical, Piromyces sp. E2
Protocol: Strain CD861 was grown in xylose media containing varying concentrations of xylitol, a known xylose isomerase inhibitor.

`OC[C@@H](O)[C@H](O)[C@@H](O)CO` [xylitol] was tested, and the “change of Km for the xylose isomerase enzyme” value (xylitol increased from 0 to 0.25 mM) was “doubled” and the “change of Km for the xylose isomerase enzyme” value (xylitol increased to 0.50 mM) was “doubled again”.
